Measurements published in BigSolDB 2.1.

Cc1c(OCC(F)(F)F)ccnc1CS(=O)c1nc2ccccc2[nH]1 (stereo not drawn)
solubility (mole fraction)
Details	278.15 K	283.15 K	288.15 K	293.15 K	298.15 K	303.15 K	308.15 K	313.15 K	318.15 K
in acetone	0.0174	0.0197	0.0221	0.0256	0.0287	0.0337	0.0398	0.0461	0.053
in acetonitrile	0.00324	0.00406	0.00516	0.00642	0.00805	0.01	0.0124	0.015	0.0186
in ethanol	0.00976	0.0114	0.0145	0.0179	0.0221	0.0274	0.0327	0.0402	0.0487
in ethyl acetate	0.00415	0.00512	0.00637	0.00799	0.00962	0.0118	0.0145	0.0175	0.0216
in isobutanol	0.00434	0.00534	0.00657	0.00803	0.0098	0.012	0.0148	0.0179	0.0218
in isopropanol	0.00417	0.00469	0.00569	0.00708	0.00879	0.0109	0.0136	0.0168	0.0204
in methanol	0.022	0.0271	0.0331	0.0428	0.0532	0.0653	0.0803	0.101	0.125
in methyl acetate	0.00633	0.00729	0.00849	0.0105	0.0131	0.0158	0.02	0.0245	0.03
in n-butanol	0.00564	0.00701	0.00832	0.0105	0.0127	0.016	0.0196	0.0242	0.0296
in n-butyl acetate	0.00168	0.00206	0.00259	0.00329	0.00406	0.00505	0.0063	0.00785	0.00945
in n-propanol	0.00803	0.00912	0.0108	0.0132	0.0157	0.019	0.0233	0.028	0.0335
in n-propyl acetate	0.00227	0.00268	0.00342	0.00417	0.00522	0.00654	0.00831	0.0101	0.0127
